In patent US9169205B2, “Pyrrolidine derivatives, pharmaceutical compositions and uses thereof” (Boehringer Ingelheim International GmbH, priority 2012, dated 2015):

Biological target: human ACC2 (Homo sapiens (Human), UniProt O00763)
Assay: ACC2 assay (spectrophotometric 384 well assay, NADH-linked kinetic method)
Format: biochemical
Settings: hACC2 construct lacking 128 N-terminal amino acids, 25° C., 340 nm
Procedure: Spectrophotometric 384 Well Assay
Malonyl CoA formation by acetyl CoA carboxylases is stoichometrically linked to the consumption of ATP. ACC2 activity is measured in a NADH-linked kinetic method measuring ADP generated during the ACC reaction using a coupled lactate dehydrogenase/pyruvate kinase reaction.
The protein is then expressed in insect cells using a baculoviral expression system. Protein purification is performed by anion exchange.
All compounds are dissolved in dimethyl sulfoxide (DMSO) to a concentration of 10 mM.
The enzymatic reaction is then started by addition of a mixture of NADH, acetyl Coenzyme A (both 200 μM f.c.) and ATP (500 uM f.c.). The decrease of the optical density (slope S) is then determined at 25° C. at a wavelength of 340 nm over 15 minutes in a spectrophotometric reader.
Each assay microtiter plate contains wells with vehicle instead of compound as controls for the non-inhibited enzyme (100% CTL; ‘HIGH’) and wells without acetyl-CoA as controls for non-specific NADH degradation (0% CTL; ‘LOW’).

Sequence of human ACC2 (O00763 129-2458): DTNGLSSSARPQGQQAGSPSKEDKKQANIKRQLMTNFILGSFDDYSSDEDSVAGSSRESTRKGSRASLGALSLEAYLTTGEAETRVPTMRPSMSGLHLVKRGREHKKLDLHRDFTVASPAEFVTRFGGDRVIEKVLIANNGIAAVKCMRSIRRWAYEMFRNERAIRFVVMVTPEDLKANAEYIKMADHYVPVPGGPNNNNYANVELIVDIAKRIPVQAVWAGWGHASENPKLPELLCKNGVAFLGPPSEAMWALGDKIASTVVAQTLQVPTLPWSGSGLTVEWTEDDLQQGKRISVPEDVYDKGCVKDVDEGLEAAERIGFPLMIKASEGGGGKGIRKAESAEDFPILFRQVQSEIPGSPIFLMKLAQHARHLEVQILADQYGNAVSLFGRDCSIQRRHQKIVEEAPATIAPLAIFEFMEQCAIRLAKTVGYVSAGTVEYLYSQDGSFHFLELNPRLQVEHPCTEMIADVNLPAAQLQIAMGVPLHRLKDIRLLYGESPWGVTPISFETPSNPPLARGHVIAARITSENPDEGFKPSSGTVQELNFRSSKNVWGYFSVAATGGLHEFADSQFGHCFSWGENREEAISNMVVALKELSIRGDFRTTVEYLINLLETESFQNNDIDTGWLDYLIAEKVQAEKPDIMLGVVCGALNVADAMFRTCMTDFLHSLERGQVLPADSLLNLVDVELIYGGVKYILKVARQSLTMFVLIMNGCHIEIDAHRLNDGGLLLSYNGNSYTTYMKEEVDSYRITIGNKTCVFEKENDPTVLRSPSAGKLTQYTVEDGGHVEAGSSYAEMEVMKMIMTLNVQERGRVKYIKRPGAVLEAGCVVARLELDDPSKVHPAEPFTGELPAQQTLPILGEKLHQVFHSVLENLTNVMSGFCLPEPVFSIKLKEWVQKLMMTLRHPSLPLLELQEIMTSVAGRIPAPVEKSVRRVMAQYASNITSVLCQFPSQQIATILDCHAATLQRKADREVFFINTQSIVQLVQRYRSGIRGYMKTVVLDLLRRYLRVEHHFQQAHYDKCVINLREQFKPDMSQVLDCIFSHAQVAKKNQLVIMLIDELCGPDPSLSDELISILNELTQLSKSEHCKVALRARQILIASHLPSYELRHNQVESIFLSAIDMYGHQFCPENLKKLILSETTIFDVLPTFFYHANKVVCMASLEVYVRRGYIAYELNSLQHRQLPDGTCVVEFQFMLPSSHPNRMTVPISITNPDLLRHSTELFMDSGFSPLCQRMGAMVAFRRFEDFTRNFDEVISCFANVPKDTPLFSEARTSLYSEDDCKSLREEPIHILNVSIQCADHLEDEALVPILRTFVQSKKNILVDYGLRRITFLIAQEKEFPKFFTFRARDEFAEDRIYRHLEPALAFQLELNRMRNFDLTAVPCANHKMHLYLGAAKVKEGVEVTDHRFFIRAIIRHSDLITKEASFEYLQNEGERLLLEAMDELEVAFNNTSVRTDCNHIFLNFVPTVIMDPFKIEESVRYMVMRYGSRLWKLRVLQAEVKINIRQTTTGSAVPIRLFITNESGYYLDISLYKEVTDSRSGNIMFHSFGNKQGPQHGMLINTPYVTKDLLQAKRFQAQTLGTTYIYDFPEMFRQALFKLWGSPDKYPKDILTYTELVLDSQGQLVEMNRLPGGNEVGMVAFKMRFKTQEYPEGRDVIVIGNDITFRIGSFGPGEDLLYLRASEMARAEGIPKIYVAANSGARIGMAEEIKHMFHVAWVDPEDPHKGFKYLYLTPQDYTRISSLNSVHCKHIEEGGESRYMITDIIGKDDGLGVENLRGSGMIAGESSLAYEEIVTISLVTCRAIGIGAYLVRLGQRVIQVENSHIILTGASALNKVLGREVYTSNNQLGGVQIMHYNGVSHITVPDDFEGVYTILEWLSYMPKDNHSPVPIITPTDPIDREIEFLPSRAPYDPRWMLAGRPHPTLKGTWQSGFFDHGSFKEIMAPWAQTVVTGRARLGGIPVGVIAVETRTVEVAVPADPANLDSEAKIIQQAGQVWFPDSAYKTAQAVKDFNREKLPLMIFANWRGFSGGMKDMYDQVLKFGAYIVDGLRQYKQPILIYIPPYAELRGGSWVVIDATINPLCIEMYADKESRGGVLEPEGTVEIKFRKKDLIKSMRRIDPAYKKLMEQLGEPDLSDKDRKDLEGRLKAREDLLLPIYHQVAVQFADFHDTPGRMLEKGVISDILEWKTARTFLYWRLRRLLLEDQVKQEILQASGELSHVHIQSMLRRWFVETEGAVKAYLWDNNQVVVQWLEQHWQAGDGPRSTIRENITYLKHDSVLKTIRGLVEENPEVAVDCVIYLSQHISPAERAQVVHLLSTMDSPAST

An IC50 of 574 nM was found for `CC(=O)N[C@@H](C)c1ccc(OC2CCN(c3ccc4c(c3)OC(F)(F)O4)C2)cc1` (stereo partly drawn) [Example 1.80] in this work.
An IC50 of 804 nM was found for `CC(=O)N[C@@H](C)c1ccc(OC2CCN(c3ccc(OCC4(C(F)(F)F)CC4)cc3)C2)cc1` (stereo partly drawn) [Example 1.81] in this work.
An IC50 of 1480 nM was found for `CC(=O)N[C@@H](C)c1ccc(OC2CCN(c3cc4c(cc3C#N)OCCO4)C2)cc1` (stereo partly drawn) [Example 1.82] in this work.
An IC50 of 350 nM was found for `CC(=O)N[C@@H](C)c1ccc(OC2CCN(c3ccc4c(c3C)OCCO4)C2)cc1` (stereo partly drawn) [Example 1.83] in this work.
An IC50 of 69 nM was found for `CC(=O)N[C@@H](C)c1ccc(OC2CCN(c3ccc(OCC4CC4)cc3C)C2)cc1` (stereo partly drawn) [Example 1.84] in this work.
An IC50 of 226 nM was found for `CC(=O)N[C@@H](C)c1ccc(OC2CCN(c3ccc(OC(C)C)cc3C)C2)cc1` (stereo partly drawn) [Example 1.85] in this work.
An IC50 of 65 nM was found for `CCCOc1ccc(N2CCC(Oc3ccc([C@H](C)NC(C)=O)cc3)C2)c(C)c1` (stereo partly drawn) [Example 1.86] in this work.
An IC50 of 108 nM was found for `CCOc1ccc(N2CCC(Oc3ccc([C@H](C)NC(C)=O)cc3)C2)c(C)c1` (stereo partly drawn) [Example 1.87] in this work.
An IC50 of 102 nM was found for `CC(=O)N[C@@H](C)c1ccc(OC2CCN(c3ccc(OCCCF)cc3C)C2)cc1` (stereo partly drawn) [Example 1.88] in this work.
An IC50 of 224 nM was found for `CC(=O)N[C@@H](C)c1ccc(OC2CCN(c3ccc(OCC(C)(C)F)cc3)C2)cc1` (stereo partly drawn) [Example 1.89] in this work.
An IC50 of 40 nM was found for `CC(=O)N[C@@H](C)c1ccc(OC2CCN(c3ccc(OCCC(F)F)cc3)C2)cc1` (stereo partly drawn) [Example 1.90] in this work.
An IC50 of 384 nM was found for `COc1cc(F)c(N2CCC(Oc3ccc([C@H](C)NC(C)=O)cc3)C2)cc1F` (stereo partly drawn) [Example 1.92] in this work.
An IC50 of 601 nM was found for `COc1ccc(N2CCC(Oc3ccc([C@H](C)NC(C)=O)cc3)C2)cc1F` (stereo partly drawn) [Example 1.93] in this work.
An IC50 of 221 nM was found for `CC(=O)N[C@@H](C)c1ccc(OC2CCN(c3cc(C(F)F)ccc3F)C2)cc1` (stereo partly drawn) [Example 1.94] in this work.
An IC50 of 166 nM was found for `CC(=O)N[C@@H](C)c1ccc(OC2CCN(c3cccc(C(F)F)c3)C2)cc1` (stereo partly drawn) [Example 1.95] in this work.
An IC50 of 61 nM was found for `CC(=O)N[C@@H](C)c1ccc(OC2CCN(c3ccc(OCC4CC(F)(F)C4)cc3)C2)cc1` (stereo partly drawn) [Example 1.96] in this work.
An IC50 of 244 nM was found for `CC(=O)N[C@@H](C)c1ccc(OC2CCN(c3ccc(O[C@H]4CCOC4)cc3)C2)cc1` (stereo partly drawn) [Example 1.97] in this work.
An IC50 of 64 nM was found for `CC(=O)N[C@@H](C)c1ccc(OC2CCN(c3ccc(OCC4CC4(F)F)c(F)c3)C2)cc1` (stereo partly drawn) [Example 1.98] in this work.
An IC50 of 383 nM was found for `CCOc1ccc(N2CCC(Oc3ccc([C@H](C)NC(C)=O)cc3)C2)cc1F` (stereo partly drawn) [Example 1.99] in this work.
An IC50 of 87 nM was found for `CC(=O)N[C@@H](C)c1ccc(OC2CCN(c3ccc(OCC4CC4)c(F)c3)C2)cc1` (stereo partly drawn) [Example 1.100] in this work.
An IC50 of 269 nM was found for `CC(=O)N[C@@H](C)c1ccc(OC2CCN(c3ccc4c(c3)C(C)(C)CO4)C2)cc1` (stereo partly drawn) [Example 1.101] in this work.
An IC50 of 212 nM was found for `CC(=O)N[C@@H](C)c1ccc(OC2CCN(c3ccc(OCCC(F)F)cc3)C2)nc1` (stereo partly drawn) [Example 1.102] in this work.
An IC50 of 231 nM was found for `CC(=O)N[C@@H](C)c1ccc(OC2CCN(c3ccc(OC4CC4)cc3C)C2)nc1` (stereo partly drawn) [Example 1.103] in this work.
An IC50 of 363 nM was found for `CC(=O)N[C@@H](C)c1ccc(O[C@H]2CCN(c3ccc(OC4CC4)cc3C)C2)cc1` [Example 1.104] in this work.
An IC50 of 40 nM was found for `CC(=O)Nc1nc(C)c(C(=O)N[C@@H](C)c2ccc(OC3CCN(c4ccc(OCC5CC5)cc4)C3)cc2)s1` (stereo partly drawn) [Example 2.1] in this work.
An IC50 of 671 nM was found for `C[C@H](NC(=O)C1CCC(=O)N1)c1ccc(O[C@@H]2CCN(c3ccc(OCC4CC4)cc3)C2)cc1` (stereo partly drawn) [Example 2.2] in this work.
An IC50 of 399 nM was found for `C[C@H](NC(=O)Cc1cnccn1)c1ccc(O[C@@H]2CCN(c3ccc(OCC4CC4)cc3)C2)cc1` [Example 2.3] in this work.
An IC50 of 517 nM was found for `CC(=O)Nc1cccc(C(=O)N[C@@H](C)c2ccc(O[C@@H]3CCN(c4ccc(OCC5CC5)cc4)C3)cc2)c1C` [Example 2.4] in this work.
An IC50 of 800 nM was found for `COc1ccccc1C(=O)N[C@@H](C)c1ccc(O[C@@H]2CCN(c3ccc(OCC4CC4)cc3)C2)cc1` [Example 2.5] in this work.
An IC50 of 705 nM was found for `CC(=O)N[C@H]1C[C@@H](C(=O)N[C@@H](C)c2ccc(O[C@@H]3CCN(c4ccc(OCC5CC5)cc4)C3)cc2)NC1=O` [Example 2.6] in this work.
